Holding throughout (test): DTP human tumour cell line panel, 48 h
Experiment [1] deals with SNB-75 CNS.
The test system of experiment [2] is UACC-62 melanoma.
The test system of experiment [3] is NCI-H460 lung.
Experiment [4] concerns CCRF-CEM leukemia.
The test system of experiment [5] is 786-0 renal.
For experiment [6], the system named is HL-60(TB) leukemia.
Experiment [7] deals with ACHN renal.
For experiment [8], the system named is M14 melanoma.
Experiment [9] has as its system SF-539 CNS.
In experiment [10] the test system is SK-OV-3 ovarian.

Where “and” joins values, the source holds several entries; their conditions need not be identical. Identical values can stand only once.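 Values below derive from 48-hour exposures of cells grown in 96-well plates, with endpoints linearly interpolated between the two concentrations bracketing the appropriate inhibition level. GI50 marks 50% less growth. TGI is the concentration that stops growth completely.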

As to `COc1ccc(S(=O)(=O)Nc2c(/C=C\c3cc(OC)c(OC)c(OC)c3)ccc(OC)c2O)cc1`, the GI50 (as a rule, the concentration at which growth is held to half of that of the control) in experiment [1] was 0.0255 µM; in [2], 0.0389 µM; in experiment [3] it was 0.0368 µM; in experiment [4] it was 0.0301 µM; in [5], 0.375 µM; in experiment [6], 0.0235 µM. Further, in experiment [7], the GI50 was 0.0693 µM. Moreover, the TGI (commonly the concentration at which net growth stops) in [1] was 88.8 µM; in experiment [2], > 100 µM; in experiment [3], 13.7 µM; in experiment [4], > 100 µM; in experiment [5], 28 µM; in experiment [6] it was 0.0779 µM. Also, the total growth inhibition concentration (TGI) in [7] was determined as 70.7 µM.

Turning to `CC(=O)Nc1cc2cc(NS(=O)(=O)c3ccc(Cl)c(Cl)c3)ccc2oc1=O`, the TGI was > 100 µM in experiment [8]; 62.8 µM in experiment [2]; > 100 µM in experiment [3]; 56.1 µM in [9]; > 100 µM in experiment [4]; 32.4 µM in [5]. The concentration for total growth inhibition (TGI) in [6] and in experiment [7] was > 100 µM each time.

Take `O=C(Nc1cc(Cl)cc(Cl)c1)c1cccc(NC2=C(Cl)C(=O)N(Cc3ccccc3)C2=O)c1`: the GI50 was 35.8 µM in experiment [8]; 33.6 µM in experiment [10]; 29.2 µM in [2]; 33.2 µM in [3]; 4.09 µM in experiment [4]; 26.8 µM in [5]. The GI50 in experiment [7] was 31.9 µM. Also, the total growth inhibition concentration (TGI) in experiment [8], in [10], in experiment [2], in [3], in experiment [4] and in experiment [5] was > 100 µM throughout. Also, in experiment [7], the TGI is > 100 µM.

As to `Nc1nc2c(-c3ccc([N+](=O)[O-])cc3)nnn2c2ccccc12`, the concentration for total growth inhibition (TGI) in experiment [8], in experiment [10], in experiment [2], in [3], in experiment [9] and in [5] was > 100 µM throughout. Further, the TGI in experiment [6] and in [7] was > 100 µM in each case.

Turning to `COc1ccc(/C=C/C(=O)c2c(-c3ccccc3)nn(C)c(=O)c2N2CCOCC2)cc1`, the concentration for total growth inhibition (TGI) in [8], in experiment [10], in experiment [2], in [3], in experiment [9] and in experiment [4] was > 100 µM in each case. In addition, the total growth inhibition concentration (TGI) is > 100 µM in experiment [5], 60.6 µM in [6] and > 100 µM in [7].

As for `O=C1C=C(OCC=C(C(F)(F)F)C(F)(F)F)c2ccccc2C1=O`, the GI50 in experiment [8] is 1.88 µM; in experiment [10], 3.45 µM; in experiment [2], 1.7 µM; in experiment [9], 1.84 µM; in experiment [4], 1.17 µM; in experiment [5], 3.97 µM. Besides, the GI50 in experiment [6] is 2.44 µM; in experiment [7], 1.85 µM. Also, the TGI in experiment [8] was determined as 3.87 µM; in experiment [10], 12 µM; in experiment [2], 4.1 µM; in experiment [9], 3.63 µM; in [4], 5.22 µM; in [5], 13.9 µM. For the same molecule, the concentration for total growth inhibition (TGI) was found to be 6.49 µM in experiment [6] and 4.01 µM in [7].

Regarding `O=C(Nc1ccccc1)OC1OC(COC(=O)c2ccccc2)C(OC(=O)c2ccccc2)C1OS(=O)(=O)c1ccc([N+](=O)[O-])cc1` (stereo not drawn), the TGI in experiment [8], in experiment [10], in [2], in [3], in [9] and in experiment [4] was > 100 µM in each case. Further, the concentration for total growth inhibition (TGI) in experiment [5], in experiment [6] and in [7] was > 100 µM in each case.

`C#CC1(O)C(COP(=O)(O)OCC2OC(n3cc(F)c(=O)[nH]c3=O)CC2O)OC(n2ccc(N)nc2=O)C1O` (stereo not drawn): the GI50 in experiment [8] was < 0.0201 µM; in [10], > 100 µM; in experiment [2], < 0.0141 µM; in experiment [3] it was < 0.01 µM; in experiment [9], < 0.01 µM; in experiment [4] it was < 0.01 µM. The concentration for 50% growth inhibition (GI50) in experiment [5] was < 0.01 µM; in experiment [6], < 0.011 µM; in [7], 0.0469 µM. Besides, the TGI in experiment [8] is 0.74 µM; in experiment [10], > 100 µM; in experiment [2] it was 0.372 µM; in experiment [3], > 21.5 µM; in experiment [9], 0.527 µM; in experiment [5] it was > 100 µM. Besides, in experiment [7], the TGI was > 100 µM.

In the case of `COc1ccc2c(c1)/C(=C\c1c(-c3cc(OC)ccc3OC)nc3sccn13)C(=O)N2`, the GI50 was 7.14 µM and 1.71 µM in experiment [8]; 9.29 µM in [10]; 5.42 µM and 12.4 µM in experiment [2]; 4.39 µM in [3]; 6.91 µM in [4]; 0.561 µM in experiment [5]. For the same molecule, in experiment [7], the GI50 is 2.37 µM. Further, the TGI in experiment [8] is 3.09 µM; in [10], 24.6 µM; in experiment [2], 28.5 µM; in [3], > 100 µM; in experiment [5], 1.78 µM; in [7], 9.74 µM.

For the molecule `NS(=O)(=O)c1ccc(NC(=O)C2C(=O)C(=O)N(c3ccc(S(N)(=O)=O)cc3)C2=O)cc1` (stereo not drawn), the TGI in experiment [1], in experiment [8], in experiment [10], in experiment [2], in [9] and in experiment [4] was > 100 µM in each case. Also, the TGI in experiment [5] and in experiment [7] was > 100 µM throughout.

As to `NCCCNc1nc2ccccc2c2c(=O)c3cccc(Cl)c3sc12`, the GI50 in [1] was 1.34 µM; in experiment [8], 1.61 µM; in experiment [10] it was 1.45 µM; in experiment [2], 1.67 µM; in experiment [9], 1.63 µM; in experiment [5], 1.61 µM. Besides, in experiment [7], the GI50 was 1.41 µM. Further, the TGI in experiment [1] is 2.69 µM; in [8], 3.06 µM; in experiment [10], 2.92 µM; in experiment [2] it was 3.17 µM; in experiment [9], 3.02 µM; in experiment [5] it was 3.05 µM. In [7], the TGI was found to be 2.79 µM.

As to `O=C(CCC(=O)Nc1cccc(C(F)(F)F)c1)CC(=O)c1ccc2ccccc2c1`, the total growth inhibition concentration (TGI) in experiment [8], in experiment [10], in experiment [2], in experiment [3], in [9] and in experiment [4] was > 100 µM in each case. Further, the TGI in [5], in experiment [6] and in experiment [7] was > 100 µM in each case.

These data come from PubChem BioAssay (NCI).
